Data taken from patent publication US10112933B2, “Methods and compositions for treatment of fibrosis” (Baylor College of Medicine, priority 2013, dated 2018).

Test system: breast cancer cell lines (MDA-MB-468, MDA-MB-231, MBA-MD-435, MCF7, MDA-MB-453)
Assay: Breast cancer cell line apoptosis assay (nucleosome ELISA)
Type: cell-based, human
Method: Breast cancer cell line apoptosis assay. Human breast carcinoma cell lines MDA-MB-468, MDA-MB-231, MBA-MD-435 and MCF7 were kindly provided by Dr. Powel H. Brown (Breast Cancer Center, Baylor College of Medicine). Breast cancer cell line, MDA-MB-453 was kindly provided by Dr. Shou Jiang (Breast Cancer Center, Baylor College of Medicine). All cell lines were grown in DMEM medium supplemented with 10% fetal bovine serum (FBS), 25,000 units penicillin G, 25,000 ug streptomycin, and 131.4 mg L-Glutamine and cultured in the incubator under the condition of 95% air, 5% CO2 at 37° C. (Garcia et al., 2001). Cells were seeded at 2,500 cells/cm^2 into 12-well plates. At 80% confluency, cells were washed with PBS and supplemented with fresh medium containing compound or the topoisomerase I-inhibitor, camptothecin, at 0, 0.1, 03, 1, 3, 10, 30, 100, 300 μM. At 24 hours, treatment was terminated by removing the medium from each well. Cells were lysed with cell lysis buffer ([…] for 30 minutes at 25° C.). Cell lysate (200 μl) was centrifuged at 200×g for 10 minutes and […] of each supernatant was assayed for nucleosomes using the Cell Death Detection ELISA (Roche Applied Science) as described by the manufacturer. The percent maximum nucleosome level was calculated by dividing the nucleosome level by the maximum nucleosome level achieved in the assay and multiplying by 100. This value was plotted as a function of the log compound concentration and the best-fitting curve generated using 4-Parameter Logistic Model/Dose Response/XLfit 4.2, IDBS software.

O=C(O)c1ccc(C=CC(=O)c2ccc3c(c2)OCCO3)cc1 [Cpd3, 4-[3-(2,3-dihydro-1,4-benzodioxin-6-yl)-3-oxo-1-propen-1-yl]benzoic acid]
apoptosis of breast cancer cell lines with constitutive Stat3 activation: induced apoptosis preferentially
